Laboratory results taken from US20180296531A1, “STIMULATION OF 11B-HSD2 EXPRESSION TO IMPROVE HORMONAL THERAPY OF STEROID-DEPENDENT DISEASE” (THE CLEVELAND CLINIC FOUNDATION, priority 2015, published 2018).

Columns and labels:
AMFR = assay: Immunoblot of AMFR; format: cell-based, human; details: enzalutamide treatment, LAPC4 cells and patient tissues
Description: (§1) For protein analysis, immunoblots were performed as described previously. Li et al., J Clin Endocrinol Metab 98, E1189-1197 (2013). Briefly, total cellular protein was extracted with ice cold RIPA lysis buffer (Sigma-Aldrich) containing protease inhibitors (Roche). 30-50 μg protein was separated by 8% SDS-PAGE gel and then transferred to a nitrocellulose membrane (Millipore). After incubating with the anti-11β-HSD2 antibody (Santa Cruz; 1:3000), anti-11β-HSD1 antibody (Santa Cruz; 1:1000), GR antibody (BD Biosciences; 1:1000), anti-Erlin-2 antibody (Cell Signaling Technology: 1:1000) or anti-AMFR antibody (Proteintech; 1:1000) overnight at 4° C., the appropriate secondary antibody was incubated for 1 hour at room temperature. The chemiluminescent detection system (Thermo Scientific) was used to detect the bands with peroxidase activity. An anti-β-actin antibody (Sigma-Aldrich; 1:5000) was used as a control for sample loading.

GR protein = assay: Immunoblot of GR protein in prostate cancer cell lines; format: cell-based, human
Description: as §1

tumor corticosterone = assay: Mass spectrometry of corticosterone in xenograft tumors; format: in vivo, mouse
Description: Xenograft analysis. At least 24 mg tumor tissue (n=18) was homogenized with 1 ml LC-MS grade water (Fisher) by using homogenizer. The mixture was then centrifuged. 800 μl of the supernatant was transferred to a glass tube, followed by the addition of 80 μl of 10 ng/ml internal standard (corticosterone-d8) (Steraloids). The steroids and the internal standard were extracted with methyl tert butyl ether (Across) evaporated to dryness under N2 then reconstituted with 500 μl of 50% methanol.
(§2) The LC-MS/MS system contains an ultra-pressure liquid chromatography system (Shimadzu Corporation, Japan) which is consisted of two LC-30AD pumps, a DGU-20A5R degasser, a CTO-30A column oven, SIL-30AC autosampler, and a system controller CBM-20A and coupled with a Qtrap 5500 mass spectrometer (AB Sciex). Data acquisition and processing were performed using Analyst® software (version 1.6.2) from ABSciex.
(§3) Steroids were ionized using electrospray ionization in positive mode. Quantification of analytes was performed using multiple reaction monitoring. The mass transitions for corticosterone, 11-dehydrocorticosterone, and internal standard are 347.3/121.0, 345.3/121.0, and 355.3/125.0, respectively. Separation of steroids was achieved using a Zorbax Eclipse plus C18 column (Agilent) using mobile phase consisting of (A) 0.2% formic acid in water and (B) 0.2% formic acid in (methanol:acetonitrile, 60:40) with a gradient program at a flow rate of 0.2 ml/min. Sample injection volume was 10 μl.

serum corticosterone = assay: Mass spectrometry of corticosterone in mouse serum; format: in vivo
Description: Mouse serum analysis. At the endpoint of the xenograft study, mouse serum was collected. 20 μl of mouse serum and internal standard (corticosterone-d8) were precipitated with 200 μl methanol. After centrifugation, the supernatant was transferred to HPLC vials prior to mass spectrometry analysis.
as §2, §3

LAPC4 cells = assay: Cell viability assay (CellTiter-Glo); format: cell-based, human
Description: LAPC4 cells or the long-term Enz treated LAPC4 cells were plated in triplicate in 96 well plates coated with poly-DL-ornithine and incubated overnight, then treated with Enz and assayed in triplicate at the time points indicated using CellTiter-Glo (Promega). Viability is normalized to day 0.

11β-HSD1 protein = assay: Immunoblot of 11β-HSD1 protein in prostate cancer cell lines; format: cell-based, human; details: AR-expressing prostate cancer cell lines
Description: as §1

[1] = enzalutamide-treated 11β-HSD2 tumors
[2] = enzalutamide-treated vector tumors
[3] = enzalutamide treated 11β-HSD2 mice
[4] = enzalutamide treated vector mice

For CNC(=O)c1ccc(N2C(=S)N(c3ccc(C#N)c(C(F)(F)F)c3)C(=O)C2(C)C)cc1F [enzalutamide], the AMFR expression (AMFR) was “did not consistently increase AMFR expression”, the GR protein (GR protein; LAPC4) was “increase in GR protein” and the GR protein (GR protein; VCaP and MDA-PCa-2b) was “increase in GR protein”. For the same compound, the “percentage of tumor corticosterone of corticosterone plus 11-dehydrocorticosterone” value (tumor corticosterone; [1]) was 33%, the tumor corticosterone concentration (tumor corticosterone; [1]) was 15.1 pmol/g and the “percentage of tumor corticosterone of corticosterone plus 11-dehydrocorticosterone” value (tumor corticosterone; [2]) was 59%. The tumor corticosterone concentration (tumor corticosterone; [2]) was 44.5 pmol/g, the “serum corticosterone absolute concentration” value (serum corticosterone; [3]) was 867 pmol/mL and the “serum percentage of corticosterone” value (serum corticosterone; [3]) was 99.85%. The “serum corticosterone absolute concentration” value (serum corticosterone; [4]) was 873 pmol/mL, the “serum percentage of corticosterone” value (serum corticosterone; [4]) was 99.87% and the “cell growth / viability” value (LAPC4 cells; LAPC4, after sustained (long-term) enzalutamide treatment) was “Growth recovers”. The cell viability (LAPC4 cells; LAPC4 in vitro, short-term treatment) was “suppresses LAPC4 viability” and the 11β-HSD1 protein (11β-HSD1 protein) was “no consistent effect on 11β-HSD1 was detectable”.
